Test results reported in US8906925B2, “Pyrido[4,3-B]indoles containing rigid moieties” (Medivation Technologies, Inc., priority 2008, dated 2014).

Assays:
[1] = molecular target: histamine receptor H1 (Homo sapiens, UniProt P35367); experiment: Histamine H1 radioligand binding ([3H]Pyrilamine); conditions: read-out: Histamine Binding (1 μM) H1, percent inhibition of specific binding, 1 μM
Method in brief: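 Values are percent inhibition of specific [3H]pyrilamine (1.2 nM) binding with compounds at ≤1 μM (1% DMSO vehicle); 180 min incubation at 25 °C, pH 7.4 Tris buffer, on CHO-expressed human H1 receptor; 1 μM pyrilamine defined nonspecific binding, bound ligand counted after filtration.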

[2] = molecular target: T1, human recombinant histamine H2 receptor (Homo sapiens, UniProt P25021); experiment: Histamine H2 radioligand binding ([125I]Aminopotentidine); conditions: read-out: Histamine Binding (1 μM) H2, percent inhibition of specific binding, 1 μM
T1 construct: expressed in transfected cells; host or cells: Chinese hamster ovary (CHO) K1 cells
T1 sequence (P25021 whole entry): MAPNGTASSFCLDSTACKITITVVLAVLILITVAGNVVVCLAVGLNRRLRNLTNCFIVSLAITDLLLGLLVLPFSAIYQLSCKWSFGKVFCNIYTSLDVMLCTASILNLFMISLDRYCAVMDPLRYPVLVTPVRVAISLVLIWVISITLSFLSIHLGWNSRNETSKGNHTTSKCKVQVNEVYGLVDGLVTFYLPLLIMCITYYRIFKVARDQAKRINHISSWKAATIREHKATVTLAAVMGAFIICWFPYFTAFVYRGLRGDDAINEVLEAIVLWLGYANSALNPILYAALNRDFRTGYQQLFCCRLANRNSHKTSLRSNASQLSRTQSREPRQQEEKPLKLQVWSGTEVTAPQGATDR
Procedure: To evaluate in radioligand binding assays the activity of compounds of the invention, human recombinant histamine H2 receptor expressed in Chinese hamster ovary (CHO) K1 cells (Ruat, M., Proc. Natl. Acad. Sci. USA. 87(5):1658, 1990) in a 50 mM Phosphate buffer, pH 7.4 was used. Compounds of the invention were incubated with 0.1 nM [^125I]Aminopotentidine for 120 min. at 25° C. Non-specific binding was estimated in the presence of 3 μM Tiotidine. Receptor proteins were filtered and washed, the filters were then counted to determine [^125I]Aminopotentidine specifically bound.

[3] = molecular target: human dopamine D2L receptor (Homo sapiens, UniProt P14416); experiment: Dopamine D2L radioligand binding ([3H]Spiperone); conditions: percent inhibition of specific binding; compound at 1 μM; read-out: Inhibition of ligand binding, Dopamine D2L
human dopamine D2L receptor, sequence (P14416 whole entry): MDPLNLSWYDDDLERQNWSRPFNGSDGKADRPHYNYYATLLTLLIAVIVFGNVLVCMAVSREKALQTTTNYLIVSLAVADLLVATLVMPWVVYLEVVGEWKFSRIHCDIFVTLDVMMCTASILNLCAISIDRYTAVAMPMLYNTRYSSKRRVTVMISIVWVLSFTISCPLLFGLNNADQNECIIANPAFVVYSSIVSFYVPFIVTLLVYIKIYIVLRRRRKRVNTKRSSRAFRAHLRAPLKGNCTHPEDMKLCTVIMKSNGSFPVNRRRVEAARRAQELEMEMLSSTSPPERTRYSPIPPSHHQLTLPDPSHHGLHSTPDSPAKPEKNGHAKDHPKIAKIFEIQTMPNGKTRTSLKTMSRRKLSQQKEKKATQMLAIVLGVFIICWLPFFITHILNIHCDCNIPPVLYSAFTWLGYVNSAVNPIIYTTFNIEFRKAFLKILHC
From the text: Non-specific binding was estimated in the presence of […] Haloperidol. Receptor proteins were filtered and washed, the filters were then counted to determine [^3H]Spiperone specifically bound. […] Biochemical assay results are presented as the percent inhibition of specific binding in Table 9.

[4] = molecular target: T2, human recombinant serotonin (5-Hydroxytryptamine) 5-HT2A receptor (Homo sapiens, UniProt P28223); experiment: Serotonin 5-HT2A radioligand binding ([3H]Ketanserin); conditions: for inhibition at 1 µM: read-out: Inhibition of ligand binding, Serotonin 5-HT2A (percent inhibition of specific binding), compound at 1 μM; for inhibition at 0.1 µM: read-out: Inhibition of ligand binding, Serotonin 5-HT2A (percent inhibition of specific binding), compound at 0.1 μM
T2 construct: expressed in transfected cells; host or cells: Chinese hamster ovary (CHO-K1) cells
T2 sequence (P28223 whole entry): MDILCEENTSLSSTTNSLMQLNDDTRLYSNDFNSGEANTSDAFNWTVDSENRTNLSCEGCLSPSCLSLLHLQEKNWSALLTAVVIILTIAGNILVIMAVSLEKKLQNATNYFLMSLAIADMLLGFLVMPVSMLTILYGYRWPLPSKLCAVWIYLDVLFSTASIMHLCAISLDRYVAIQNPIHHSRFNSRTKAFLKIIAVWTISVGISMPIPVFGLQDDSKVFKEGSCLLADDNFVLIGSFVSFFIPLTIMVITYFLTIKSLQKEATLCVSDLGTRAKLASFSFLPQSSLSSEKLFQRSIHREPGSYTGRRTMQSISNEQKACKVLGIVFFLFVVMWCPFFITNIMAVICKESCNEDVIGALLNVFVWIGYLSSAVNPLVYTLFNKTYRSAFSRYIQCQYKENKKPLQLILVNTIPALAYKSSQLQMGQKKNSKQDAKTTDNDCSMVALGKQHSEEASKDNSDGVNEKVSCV
Procedure: Compounds of the invention were incubated with 0.5 nM [^3H]Ketanserin for 60 min. at 25° C. Non-specific binding was estimated in the presence of 1 μM Mianserin. Receptor proteins were filtered and washed, the filters were then counted to determine [^3H]Ketanserin specifically bound.

[5] = molecular target: T3, human recombinant serotonin (5-Hydroxytryptamine) 5-HT2C receptor (Homo sapiens, UniProt P28335); experiment: Serotonin 5-HT2C radioligand binding ([3H]Mesulergine); conditions: read-out: Inhibition of ligand binding, Serotonin 5-HT2C (percent inhibition of specific binding); for inhibition at 1 µM: compound at 1 μM; for inhibition at 0.1 µM: compound at 0.1 μM
T3 construct: expressed in transfected cells; host or cells: Chinese hamster ovary (CHO-K1) cells
T3 sequence (P28335 33-458): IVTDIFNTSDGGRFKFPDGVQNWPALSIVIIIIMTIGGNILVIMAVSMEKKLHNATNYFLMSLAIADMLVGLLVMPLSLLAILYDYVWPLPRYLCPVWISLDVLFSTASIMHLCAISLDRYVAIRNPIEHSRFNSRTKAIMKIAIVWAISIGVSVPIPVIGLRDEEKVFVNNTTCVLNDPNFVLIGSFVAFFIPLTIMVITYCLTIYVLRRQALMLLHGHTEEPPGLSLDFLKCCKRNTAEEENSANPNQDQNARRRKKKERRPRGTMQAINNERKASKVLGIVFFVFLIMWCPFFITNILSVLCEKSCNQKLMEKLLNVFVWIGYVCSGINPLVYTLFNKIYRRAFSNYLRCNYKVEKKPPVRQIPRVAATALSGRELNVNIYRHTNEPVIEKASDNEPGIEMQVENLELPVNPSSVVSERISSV
Method in brief: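 Compounds tested at 1 μM or lower (1% DMSO vehicle) for displacement of 1 nM [3H]Mesulergine over 60 min at 25° C. Specific binding determined by filtration counting, with 1 μM Mianserin defining non-specific binding; values are percent inhibition.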

[6] = molecular target: T4, human recombinant serotonin (5-Hydroxytryptamine) 5-HT6 receptor (Homo sapiens, UniProt P50406); experiment: Serotonin 5-HT6 radioligand binding ([3H]LSD); conditions: read-out: Inhibition of ligand binding, Serotonin 5-HT6 (percent inhibition of specific binding); for inhibition at 1 µM: compound at 1 μM; for inhibition at 0.1 µM: compound at 0.1 μM
T4 construct: expressed in transfected cells; host or cells: human HeLa cells
T4 sequence (P50406 whole entry): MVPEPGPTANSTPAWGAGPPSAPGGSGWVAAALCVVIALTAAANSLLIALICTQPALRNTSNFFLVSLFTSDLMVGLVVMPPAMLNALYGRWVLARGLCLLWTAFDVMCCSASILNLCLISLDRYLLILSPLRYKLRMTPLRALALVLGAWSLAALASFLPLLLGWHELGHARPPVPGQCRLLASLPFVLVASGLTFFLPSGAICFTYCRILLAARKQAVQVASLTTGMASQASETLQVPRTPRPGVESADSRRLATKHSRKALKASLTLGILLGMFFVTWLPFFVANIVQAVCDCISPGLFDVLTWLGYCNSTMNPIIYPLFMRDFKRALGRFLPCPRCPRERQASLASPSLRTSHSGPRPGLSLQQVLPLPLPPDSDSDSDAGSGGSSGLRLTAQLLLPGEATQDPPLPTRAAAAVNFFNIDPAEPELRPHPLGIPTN
Procedure: Compounds of the invention were incubated with 1.5 nM [3H]Lysergic acid diethylamide (LSD) for 120 min. at 37° C. […] Receptor proteins were filtered and washed, the filters were then counted to determine [3H]LSD specifically bound. Compounds were screened at 1 μM or lower, using 1% DMSO as vehicle. Biochemical assay results are presented as the percent inhibition of specific binding in Table 10.

[7] = molecular target: human recombinant serotonin (5-Hydroxytryptamine) 5-HT7 receptor (Homo sapiens, UniProt P34969); experiment: Serotonin 5-HT7 radioligand binding ([3H]LSD); conditions: read-out: Inhibition of ligand binding, Serotonin 5-HT7 (percent inhibition of specific binding); for inhibition at 1 µM: compound at 1 μM; for inhibition at 0.1 µM: compound at 0.1 μM
human recombinant serotonin (5-Hydroxytryptamine) 5-HT7 receptor, sequence (P34969 whole entry): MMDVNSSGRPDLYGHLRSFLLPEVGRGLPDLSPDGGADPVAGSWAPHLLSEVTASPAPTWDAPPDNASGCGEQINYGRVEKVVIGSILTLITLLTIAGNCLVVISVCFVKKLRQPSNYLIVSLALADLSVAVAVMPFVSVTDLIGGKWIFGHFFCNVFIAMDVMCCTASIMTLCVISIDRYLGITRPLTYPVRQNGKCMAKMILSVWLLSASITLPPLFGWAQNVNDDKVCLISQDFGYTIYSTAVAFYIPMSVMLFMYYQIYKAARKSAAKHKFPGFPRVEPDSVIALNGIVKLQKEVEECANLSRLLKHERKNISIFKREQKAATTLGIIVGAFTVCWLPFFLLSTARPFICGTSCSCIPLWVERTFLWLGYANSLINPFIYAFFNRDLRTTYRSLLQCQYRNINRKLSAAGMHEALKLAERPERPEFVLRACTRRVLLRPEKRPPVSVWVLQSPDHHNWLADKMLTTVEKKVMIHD
From the text: Receptor proteins were filtered and washed, the filters were then counted to determine [^3H]LSD specifically bound.

histamine receptor H1, sequence (P35367 whole entry): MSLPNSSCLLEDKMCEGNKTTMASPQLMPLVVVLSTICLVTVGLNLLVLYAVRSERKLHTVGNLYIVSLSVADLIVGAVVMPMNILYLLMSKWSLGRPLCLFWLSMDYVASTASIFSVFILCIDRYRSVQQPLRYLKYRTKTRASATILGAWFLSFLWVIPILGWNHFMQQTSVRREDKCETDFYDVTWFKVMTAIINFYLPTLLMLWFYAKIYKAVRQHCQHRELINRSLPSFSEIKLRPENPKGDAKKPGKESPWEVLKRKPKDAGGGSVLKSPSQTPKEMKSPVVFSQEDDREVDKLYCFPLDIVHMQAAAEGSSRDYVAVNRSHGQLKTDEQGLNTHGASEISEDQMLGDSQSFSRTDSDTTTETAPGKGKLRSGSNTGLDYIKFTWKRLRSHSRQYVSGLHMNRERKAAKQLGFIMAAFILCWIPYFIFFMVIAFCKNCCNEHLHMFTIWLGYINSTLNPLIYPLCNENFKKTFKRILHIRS

Row | SMILES | inhibition at 1 µM [1] | inhibition at 1 µM [2] | inhibition at 1 µM [3] | inhibition at 1 µM [4] | inhibition at 1 µM [5] | inhibition at 1 µM [6] | inhibition at 1 µM [7] | inhibition at 0.1 µM [4] | inhibition at 0.1 µM [5] | inhibition at 0.1 µM [6] | inhibition at 0.1 µM [7]
1 | C/C(=C\n1c2c(c3cc(Cl)ccc31)CN(C)CC2)c1cccnc1 [Compound 86, (E)-8-chloro-2,3,4,5-tetrahydro-2-methyl-5-(2-(pyridin-3-yl)prop-1-enyl)-1H-pyrido[4,3-b]indole] | 72% | 54% | 40% | 95% | 94% | 77% | 93% | – | – | – | –
2 | C/C(=C\n1c2c(c3cc(Cl)ccc31)CN(C)CC2)c1ccc(F)c(F)c1 [Compound 98, (E)-8-chloro-5-(2-(3,4-difluorophenyl)prop-1-enyl)-2,3,4,5-tetrahydro-2-methyl-1H-pyrido[4,3-b]indole] | 53% | 99% | 78% | 95% | 100% | 100% | 94% | – | – | – | –
3 | C/C(=C\n1c2c(c3cc(Cl)ccc31)CN(C)CC2)c1ccc(Cl)c(Cl)c1 [Compound 103, (E)-8-chloro-5-(2-(3,4-dichlorophenyl)prop-1-enyl)-2,3,4,5-tetrahydro-2-methyl-1H-pyrido[4,3-b]indole] | 81% | 101% | 49% | 101% | 98% | 89% | 90% | – | – | – | –
4 | CN1CCc2c(c3cc(F)ccc3n2CC(C)(O)c2ccncc2)C1 (stereo not drawn) [Compound 181, 1-(8-fluoro-2-methyl-3,4-dihydro-1H-pyrido[4,3-b]indol-5(2H)-yl)-2-(pyridin-4-yl)propan-2-ol] | 0% | 25% | 8% | 77% | 80% | 32% | 30% | – | – | – | –
5 | CN1CCc2c(c3cc(Cl)ccc3n2CC(O)c2ccncc2)C1 (stereo not drawn) [Compound 183, 2-(8-chloro-2-methyl-3,4-dihydro-1H-pyrido[4,3-b]indol-5(2H)-vyl)-1-(pyridin-4-yl)ethanol] | 91% | 47% | 15% | 82% | 78% | 72% | 74% | – | – | – | –
6 | CN1CCc2c(c3ccc(Cl)cc3n2CC(C)(O)c2ccncc2)C1 (stereo not drawn) [Compound 184, 1-(7-chloro-2-methyl-3,4-dihydro-1H-pyrido[4,3-b]indol-5(2H)-yl)-2-(pyridin-4-yl)propan-2-ol] | 23% | 57% | 1% | 82% | 65% | 31% | 48% | – | – | – | –
7 | CN1CCc2c(c3cccc(F)c3n2CC(C)(O)c2ccncc2)C1 (stereo not drawn) [Compound 185, 1-(6-fluoro-2-methyl-3,4-dihydro-1H-pyrido[4,3-b]indol-5(2H)-yl)-2-(pyridin-4-yl)propan-2-ol] | 8% | 29% | -1% | 82% | 83% | 26% | 41% | – | – | – | –
8 | CN1CCc2c(c3ccccc3n2CC(C)(O)c2ccncc2)C1 (stereo not drawn) [Compound 186, 1-(2-methyl-3,4-dihydro-1H-pyrido[4,3-b]indol-5(2H)-yl)-2-(pyridin-4-yl)propan-2-ol] | 1% | 22% | 3% | 74% | 72% | 12% | 37% | – | – | – | –
9 | Cc1ccc2c(c1)c1c(n2CC(C)(O)c2ccc(O)cc2)CCN(C)C1 (stereo not drawn) [Compound 187, 4-(1-(2,8-dimethyl-3,4-dihydro-1H-pyrido[4,3-b]indol-5(2H)-yl)-2-hydroxypropan-2-yl)phenol] | 36% | 57% | 35% | 102% | 99% | 98% | 94% | – | – | – | –
10 | COc1ccc2c(c1)c1c(n2CC(C)(O)c2ccncc2)CCN(C)C1 (stereo not drawn) [Compound 188, 1-(8-methoxy-2-methyl-3,4-dihydro-1H-pyrido[4,3-b]indol-5(2H)-yl)-2-(pyridin-4-yl)propan-2-ol] | 8% | 13% | -5% | 50% | 66% | 9% | 45% | – | – | – | –
11 | CN1CCc2c(c3cc(Cl)c(Cl)cc3n2CC(C)(O)c2ccncc2)C1 (stereo not drawn) [Compound 189, 1-(7,8-dichloro-2-methyl-3,4-dihydro-1H-pyrido[4,3-b]indol-5(2H)-yl)-2-(pyridin-4-yl)propan-2-ol] | 77% | 85% | 2% | 96% | 91% | 87% | 82% | – | – | – | –
12 | CN1CCc2c(c3c(Cl)c(Cl)ccc3n2CC(C)(O)c2ccncc2)C1 (stereo not drawn) [Compound 190, 1-(8,9-dichloro-2-methyl-3,4-dihydro-1H-pyrido[4,3-b]indol-5(2H)-yl)-2-(pyridin-4-yl)propan-2-ol] | -11% | 9% | -15% | 71% | 52% | 31% | 47% | – | – | – | –
13 | Cc1ccc2c(c1)c1c(n2/C=C(/c2ccncc2)C(C)(C)C)CCN(C)C1 [Compound 280, (E)-5-(3,3-dimethyl-2-(pyridin-4-yl)but-1-enyl)-2,8-dimethyl-2,3,4,5-tetrahydro-1H-pyrido[4,3-b]indole] | 12% | – | 52% | – | – | – | – | 83% | 86% | 56% | 20%
14 | CC/C(=C/n1c2c(c3cc(C)ccc31)CN(C)CC2)c1ccncc1 [Compound 281, (Z)-2,8-dimethyl-5-(2-(pyridin-4-yl)but-1-enyl)-2,3,4,5-tetrahydro-1H-pyrido[4,3-b]indole] | 42% | – | 51% | – | – | – | – | 103% | 96% | 78% | 93%
15 | CC/C(=C/n1c2c(c3cc(Cl)ccc31)CN(C)CC2)c1ccncc1 [Compound 282, (Z)-8-chloro-2-methyl-5-(2-(pyridin-4-yl)but-1-enyl)-2,3,4,5-tetrahydro-1H-pyrido[4,3-b]indole] | 31% | – | 57% | – | – | – | – | 100% | 94% | 102% | 91%
